# Test results: patent US20260151413A1, “ANTICANCER DRUG CONJUGATES” (Ariel Scientific Innovations Ltd., priority 2022, published 2026)
# Tests used:
# [1] = system: MHH-CALL4; assay: WST-1 proliferation assay, MHH-CALL4; assay type: cell-based, human; settings: Homo sapiens, MHHCALL4; WST-1, 48 hours of treatment
# Protocol: (§1) Albert Pinhasov (Ariel University, Ariel, Israel). […] Granta cells were kindly provided by Prof.
# (§2) Table 3 [resents the calculated IC50 values (μM) for each chimera in different hematological malignancies cell-lines. The proliferation rate was measured by WST-1 assay after 48 hours of treatment. The result shown for each concentration point represents the […]
# [2] = system: OCI-AML3; assay: WST-1 proliferation assay, OCI-AML3; assay type: cell-based; settings: Homo sapiens, OCI-AML-3; WST-1, 48 hours of treatment
# Protocol: as §1, §2
# [3] = system: MINO; assay: WST-1 proliferation assay, MINO; assay type: cell-based, human; settings: Homo sapiens, MINO; WST-1, 48 hours of treatment
# Protocol: as §1, §2
# [4] = system: KG-1a; assay: WST-1 proliferation assay, KG-1a; assay type: cell-based; settings: Homo sapiens, KG-1a; WST-1, 48 hours of treatment
# Protocol: as §1, §2
# [5] = system: OCI-AML3, KG-1a, Granta, Jeko-1, BV-173 and MDA MB-231 cell-lines; assay: Low-dose proliferation test on aggressive cell-lines; assay type: cell-based; settings: 50 nM-250 nM
# Protocol: The cytotoxicity of the synthesized chimeras on MDA MB-328 was determined by measuring the mitochondrial enzyme activity, using a commercial XTT assay kit (Biological Industries, Bet-Ha'emek, Israel). All samples contained DMSO (Sigma Aldrich) at final concentration […], XTT reagent was added, and the cells were re-incubated for additional 3 h. During that time, the absorbencies in the wells were measured with a TECAN Infinite M200 ELISA reader at both 480 and 680 nm. The difference between these measurements was used for calculating the % Growth Inhibition (GI) in test wells compared to two controls: cells that were exposed to the medium and solvent, and those which were exposed to a solvent-free medium. All the tests were done in tetra-plicate; each experiment was conducted three times.
# Therefore, it was decided to reduce chimera 9 and the parental drug (doxorubicin) doses to 50-250 nM range on the most four aggressive hematological malignancies cell-lines (OCI-AML3, KG-1a, Granta and Jeko-1). Moreover, chimera 9 was examined on an additional aggressive leukemia cell line (BV-173) and breast cancer cell-line model (MDA MB-231).
structure (smiles),measurement,setting,value
"COC(=O)N(C)/N=N/c1ccc(CNC2CC(OC3CC(O)(C(=O)CO)Cc4c(O)c5c(c(O)c43)C(=O)c3c(OC)cccc3C5=O)OC(C)C2O)cc1 (centres unmarked) [Chimera 9, (E)-methyl-3-(4-(((3-hydroxy-2-methyl-6-((3,5,12-trihydroxy-3-(2-hydroxyacetyl)-10-methoxy-6,11-dioxo-1,2,3,4,6,11-hexahydrotetracen-1-yl)oxy)tetrahydro-2H-pyran-4-yl)amino)methyl)phenyl)-1-methyltriaz-2-ene-1-carboxylate]",IC50,[1],1140 nM
same,IC50,[2],1240 nM
same,IC50,[3],480 nM
same,IC50,[4],400 nM
same,proliferation rate versus corresponding controls,[5],significant reduction in the proliferation rate
